Experiments:
Italian ryegrass = assay: Test E Italian ryegrass; format: in vivo, Lolium multiflorum; conditions: Preemergence
cocklebur = assay: Test B pre/postemergence cocklebur; format: in vivo, Xanthium strumarium
Procedure, shortened: (§1)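 Test chemicals in a non-phytotoxic solvent mixture with surfactant were sprayed preemergence onto planted seeds and postemergence onto plants 2 to 18 cm tall (1- to 4-leaf stage). After twelve to sixteen days in a greenhouse, injury was visually rated against untreated controls from 0 (no effect) to 10 (complete control).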

wild oat = assay: Test E wild oat; format: in vivo, Avena fatua; conditions: Preemergence, 0 to 100 scale where 0 is no effect and 100 is complete control
winter wheat [1] = assay: Test E winter wheat; format: in vivo, Triticum aestivum; conditions: Postemergence
Procedure, shortened: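 For postemergence, sowings are timed so plants reach the 1- to 4-leaf stage at spraying. Test compound is applied in a surfactant-containing solvent mixture that is non-phytotoxic. Response is judged by eye against untreated controls after approximately 21 to 28 days.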

corn = assay: Test B pre/postemergence corn; format: in vivo, Zea mays
Procedure, shortened: as §1

winter wheat [2] = assay: Test E winter wheat; format: in vivo, Triticum aestivum; conditions: Preemergence
crabgrass = assay: Test B pre/postemergence crabgrass; format: in vivo, Digitaria sanguinalis
Procedure, shortened: as §1

green foxtail = assay: Test E green foxtail; format: in vivo, Setaria viridis; conditions: Preemergence
winter barley = assay: Test E winter barley; format: in vivo, Hordeum vulgare; conditions: Preemergence
blackgrass = assay: Test E blackgrass; format: in vivo, Alopecurus myosuroides; conditions: Preemergence
surinam grass = assay: Test B pre/postemergence surinam grass; format: in vivo, Brachiaria decumbens
Procedure, shortened: as §1

[3] = Rate 500 g/ha, 0 to 100 scale where 0 is no effect and 100 is complete control
[4] = Rate 1000 g/ha, 0 to 100 scale where 0 is no effect and 100 is complete control
[5] = Postemergence, Rate 62 g/ha, scale 0 to 10, 0 is no effect, 10 is complete control
[6] = Postemergence, Rate 250 g/ha, scale 0 to 10, 0 no effect, 10 complete control
[7] = Preemergence, Rate 62 g/ha, scale 0 to 10 (0 no effect, 10 complete control)
[8] = Preemergence, Rate 125 g/ha, scale 0 to 10 (0 no effect, 10 complete control)
[9] = Preemergence, Rate 250 g/ha, scale of 0 to 10 where 0 is no effect and 10 is complete control
[10] = Preemergence, Rate 500 g/ha, scale 0 (no effect) to 10 (complete control)
[11] = Rate 125 g/ha, Postemergence, scale 0 to 10, 0 no effect, 10 complete control
[12] = Rate 500 g/ha, Postemergence, scale 0 to 10, 0 no effect, 10 complete control

## CC(C)N(C(=O)n1oc(=O)n(Cc2cccs2)c1=O)c1ccc(F)cc1F [Compound 86]
Italian ryegrass; Rate 250 g/ha, 0 to 100 scale
  Plant response rating, I. Ryegrass: 30
Italian ryegrass; [3]
  Plant response rating, I. Ryegrass: 50
Italian ryegrass; [4]
  Plant response rating, I. Ryegrass: 60
cocklebur; [5]
  Cocklebur plant response rating: 0
cocklebur; [6]
  Cocklebur plant response rating: 2
cocklebur; [7]
  Cocklebur plant response rating: 0
cocklebur; [8]
  Plant response rating, Cocklebur: 0
cocklebur; [9]
  Plant response rating, Cocklebur: 0
cocklebur; [10]
  Cocklebur plant response rating: 0
cocklebur; [11]
  Cocklebur plant response rating: 1
cocklebur; [12]
  Cocklebur plant response rating: 2
Wild oat; Rate 500 g/ha
  Plant response rating, Wild oat: 60
Wild oat; Rate 1000 g/ha
  Plant response rating, Wild oat: 70
Winter wheat [1]; Rate 250 g/ha, 0 to 100 scale (0 no effect, 100 complete control)
  Plant response rating, Wheat (winter): 55
Winter wheat [1]; Rate 1000 g/ha, 0 to 100 scale, 0 is no effect and 100 is complete control
  Plant response rating, Wheat (winter): 60
Winter wheat [1]; Rate 500 g/ha, 0 to 100 scale, 0 no effect, 100 complete control
  Plant response rating, Wheat (winter): 70
corn; [5]
  Corn plant response rating: 0
corn; [6]
  Corn plant response rating: 00
corn; [7]
  Corn plant response rating: 0
corn; [8]
  Plant response rating, Corn: 0
corn; [9]
  Plant response rating, Corn: 0
corn; [10]
  Corn plant response rating: 0
corn; [11]
  Corn plant response rating: 0
corn; [12]
  Corn plant response rating: 0
Winter wheat [2]; Rate 250 g/ha, 0 to 100 scale
  Plant response rating, Wheat (winter): 60
Winter wheat [2]; [3]
  Plant response rating, Wheat (winter): 40
Winter wheat [2]; [4]
  Plant response rating, Wheat (winter): 65
crabgrass; [5]
  Crabgrass plant response rating: 2
crabgrass; [6]
  Crabgrass plant response rating: 5
crabgrass; [7]
  Crabgrass plant response rating: 5
crabgrass; [8]
  Plant response rating, Crabgrass: 8
crabgrass; [9]
  Plant response rating, Crabgrass: 10
crabgrass; [10]
  Crabgrass plant response rating: 10
crabgrass; [11]
  Crabgrass plant response rating: 3
crabgrass; [12]
  Crabgrass plant response rating: 9
Green foxtail; Rate 250 g/ha, 0 to 100 scale
  Plant response rating, Green foxtail: 40
Green foxtail; [3]
  Plant response rating, Green foxtail: 55
Green foxtail; [4]
  Plant response rating, Green foxtail: 100
Winter barley; Rate 250 g/ha, 0 to 100 scale
  Plant response rating, Barley (winter): 70
Winter barley; [3]
  Plant response rating, Barley (winter): 80
Winter barley; [4]
  Plant response rating, Barley (winter): 70
blackgrass; Rate 250 g/ha, 0 to 100 scale
  Plant response rating, Blackgrass: 60
blackgrass; [3]
  Plant response rating, Blackgrass: 55
blackgrass; [4]
  Plant response rating, Blackgrass: 65
Surinam grass; [5]
  B. signalgrass plant response rating: 0
Surinam grass; [6]
  B. signalgrass plant response rating: 0
Surinam grass; [7]
  B. signalgrass plant response rating: 0
Surinam grass; [8]
  Plant response rating, B. signalgrass: 2
Surinam grass; [9]
  Plant response rating, B. signalgrass: 4
Surinam grass; [10]
  B. signalgrass plant response rating: 7
Surinam grass; [11]
  B. signalgrass plant response rating: 0
Surinam grass; Rate 500 g/ha, Postemergence, scale of 0 to 10 where 0 is no effect and 10 is complete control
  B. signalgrass plant response rating: 0
